The assay relates to cells. The experiment in a line: cell cycle effect (G2/M). The format is cell-based. The conditions noted are these: cell line not stated; "Experiments show that".

Turning to `N=C(N)c1ccc(OCCCCCOc2ccc(C(=N)N)cc2)cc1` [pentamidine], the “effect on cell cycle” value is reported as “maintain cells in the G2/M cell cycle”.

(Values after patent US7875614B2, “Phthalazinones” (Merck Patent GmbH, priority 2005, dated 2011).)
